Entries after “also recorded” stand apart in the source; their conditions may differ. Values belong to the compound of their own block, whether it stands above or below them.
Assays:
[1] = tested on: oligodendrocytes cell line 158N; experiment: Metabolic conversion in mouse oligodendrocytes cell culture (LC-MS); assay type: in vitro ADME; settings: for 9CDHRA levels in cells after treatment: 10^−5M for 18 h; for ATROL levels in cells after treatment: 10^−6M
In short: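 Mouse 158N oligodendrocytes at 70–80% confluency were treated with retinoid precursors or esters, with ethanol as vehicle, at 10^−6 M in one variant and from a 10^−2 M ethanol solution in the other. Cells were harvested after 18 h under limited light. Metabolites were analysed by LC-MS.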

[2] = tested on: human oligodendrocytes cell cultures; experiment: Metabolic conversion in human oligodendrocytes cell culture (HPLC-MS); assay type: in vitro ADME; settings: for 9CDHRA levels in cells after treatment (metabolism / accumulation): 10^−6M, n=3
In short: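 Cultured human oligodendrocytes at 80% confluency were treated with each retinoid or carotenoid at 10^−6 M for 18 h, with ethanol vehicle as control. Harvested cells were analysed by HPLC-MS for 9CDHRA levels, n=3 with standard deviation.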

[3] = tested on: hRARα, β and γ LBDs; experiment: ESI-MS in non-denaturing conditions, binding to RAR LBD isotypes; parameters: species or system human; settings: 5-fold molar excess of ligand
Protocol: (§1) cDNAs encoding hRXRα LBD (223-462), hRARα LBD (153-421), hRARBβ LBD (169-414) and hRARγ LBD (178-423) were cloned into pET28b vector to generate N-terminal Histag fusion proteins. Purification was carried out as previously described [Lippert W P et al. 2009, Osz J, et al. 2012], including a metal affinity chromatography and a gel filtration. For details of sample preparation and ESI-MS analyses see below.
cDNAs encoding hRXRαLBD (223-462), hRARαLBD (153-421), hRARβLBD (169-414) and hRARγ LBD (178-423) were cloned into pET28b vector to generate N-terminal His-tag fusion proteins. Purification was carried out as previously described [Lippert W P et al. 2009, Osz J, et al. 2012], including a metal affinity chromatography and a gel filtration. Prior to ESI-MS analysis, samples were desalted on Zeba Spin desalting columns (Pierce) in 150 mM ammonium acetate (pH 8.0). ESI-MS measurements were performed on an electrospray time-of-flight mass spectrometer (MicrOTOF, Bruker Daltonics). Purity and homogeneity of the proteins were verified by mass spectrometry in denaturing conditions (samples were diluted at 2 pmol/μl in a 1:1 water-acetonitrile mixture (v/v) acidified with 1% formic acid). The mass measurements of the noncovalent complexes were performed in ammonium acetate (200 mM; pH 8.0). […]

[4] = biological target: T1, hRXRα LBD (Homo sapiens, UniProt P19793); experiment: ESI-MS in non-denaturing conditions, binding to RXR LBD; parameters: cDNAs encoding hRXRα LBD (223-462); His-tag (N); made in house; settings: titration monitored by ESI-MS
T1 sequence (P19793 223-462): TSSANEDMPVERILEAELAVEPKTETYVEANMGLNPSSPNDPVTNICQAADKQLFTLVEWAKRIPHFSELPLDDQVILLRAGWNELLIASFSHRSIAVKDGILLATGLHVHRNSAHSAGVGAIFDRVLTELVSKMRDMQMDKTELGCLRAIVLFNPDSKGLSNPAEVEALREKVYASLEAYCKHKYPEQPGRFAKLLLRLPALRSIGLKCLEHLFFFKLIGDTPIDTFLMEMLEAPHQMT
Protocol: as §1
cDNAs encoding hRXRαLBD (223-462), hRARαLBD (153-421), hRARβLBD (169-414) and hRARγ LBD (178-423) were cloned into pET28b vector to generate N-terminal His-tag fusion proteins. Purification was carried out as previously described [Lippert W P et al. 2009, Osz J, et al. 2012], including a metal affinity chromatography and a gel filtration. Prior to ESI-MS analysis, samples were desalted on Zeba Spin desalting columns (Pierce) in 150 mM ammonium acetate (pH 8.0). ESI-MS measurements were performed on an electrospray time-of-flight mass spectrometer (MicrOTOF, Bruker Daltonics). Purity and homogeneity of the proteins were verified by mass spectrometry in denaturing conditions (samples were diluted at 2 pmol/μl in a 1:1 water-acetonitrile mixture (v/v) acidified with 1% formic acid). The mass measurements of the noncovalent complexes were performed in ammonium acetate (200 mM; pH 8.0). Samples were diluted to 8 pmol/ml in the previous buffer and continuously infused into the ESI ion source at a flow rate of […] through a Harvard syringe pump (Harvard Apparatus model 11). A careful optimization of the interface parameters was performed to obtain the best sensitivity and spectrum quality without affecting the noncovalent complexes stability. In particular, the capillary exit (CE) ranged from 60 to 150 V with a vacuum interface pressure of 2.3 mbar and was set to 80 V. For ligand-interaction analysis, ligands were added to the proteins in a 5-fold molar excess.

[5] = tested on: Rbp1−/− and Rxrγ−/− mice; experiment: Y-maze spontaneous alternation; assay type: in vivo, mouse; settings: 5-6 hours prior to testing
Protocol: The Y-maze apparatus and the procedure were as previously described (Wietrzych et al., 2005). Briefly, each mouse was placed at the end of one arm and allowed to explore freely the apparatus for 5 min, with the experimenter out of the animal's sight. Spontaneous alternation performance (SAP) was assessed visually by scoring the pattern of entries into each arm and expressed as a percentage of total number of entries, discounting the first two visits. Total entries were scored as an index of ambulatory activity in the Y-maze, but none of tested mice had to be excluded due to low locomotor performance (score below 9 entries).
Vehicle treatments consisted of 3% ethanol and 3% DMSO solution in sunflower oil. Treatments were administered by intraperitoneal injections at volume/weight ratio 3 ml/kg between 8-10 am and 5-6 h before the test as previously validated (Wietrzych-Schindler M, 2011).

[6] = Mouse oral supplementation, retinoid levels in serum, brain and liver (LC-MS); assay type: in vivo; settings: mice, per os 40 mg/kg, 11 h after treatment

- 9CDHRA levels in cells after treatment [1]: very strong increase
- ATROL levels in cells after treatment [1]: a low conversion or induced increase
- 9CDHRA levels in cells after treatment (metabolism / accumulation) [2]: strong accumulation
SMILES: CC(C=CC1=C(C)CCCC1(C)C)=CC=CC(C)CC(=O)O (stereo not drawn) [9CDHRA, 9-cis-13,14-dihydroretinoic acid]

- binding to RAR LBD isotypes in ESI-MS [3]: bind to all RAR LBD isotypes
- higher affinity than (S)-9CDHRA for RXR LBD (peak amplitude) [4]: about 65%
- lower affinity than 9CRA for RXR LBD (peak amplitude) [4]: approximately 30%
SMILES: CC1=C(/C=C/C(C)=C\C=C\[C@H](C)CC(=O)O)C(C)(C)CCC1 [(R)-9CDHRA, (9Z,13R)-13,14-Dihydroretinoic Acid]

SMILES: CC1(C)CCC(C)(C)c2cc(C3(c4ccc(C(=O)O)cc4)OCCO3)ccc21 [UVI2108, reference compound]
- working memory in spontaneous alternation in the Y-maze ([5]; Rbp1−/− mice, ATRA 5 mg/kg, UVI2108 1 mg/kg, MA 5 mg/kg, DHA 1 mg/kg, TTNPB 5 mg/kg): normalised; also recorded: pro-mnemonic effects
- working memory in spontaneous alternation in the Y-maze ([5]; Rxrγ−/− mice, same doses): not

SMILES: CC1=C(/C=C/C(C)=C\C=C\C(C)CCO)C(C)(C)CCC1 (stereo not drawn) [9CDHROL, 9-cis-13,14-dihydroretinol]
- 9CDHRA levels in cells after treatment [1]: strong increase
- ATROL levels in cells after treatment [1]: a low conversion or induced increase
- 9CDHROL levels in cells after treatment ([1]; 10^−6 M, 18 hours): increases; also recorded: excellent/strongly
- conversion to 9CDHRA ([1]; data not shown): excellent precursor
- 9CDHRA levels in cells after treatment (metabolism / accumulation) [2]: moderately but significantly metabolized
- precursor substrate of 9CDHROL ([2]; in vitro): excellent precursor substrates
- 9CDHRA levels in serum, brain and liver after treatment (conversion to 9CDHRA) [6]: strong increase; also recorded: strongly increased; also recorded: best conversion
- 9CDHROL levels in serum, brain and liver after treatment [6]: strongly increased; also recorded: strong and significantly increased levels

— patent US12029715B2, “Precursor compounds for providing retinoids of the vitamin A5 pathway and uses thereof” (UNIVERSITY OF DEBRECEN, priority 2015, dated 2024)
